Measurements from US20110182953A1, “P[…] OF CALCIUM ACAMPROSATE” (priority 2009, published 2011).

Test: accelerated stability tests
Assay type: physicochemical
Conditions: exposed to heat and/or humidity sources

Q: Which “stability of the polymorphic form in accelerated stability tests” value does the source give for `CC(=O)NCCCS(=O)(=O)O` [form B, calcium acamprosate] here?
A: The value was “does not alter”.
